The text below walks through data of patent US20140073761A1, “CONJUGATES CONTAINING HYDROPHILIC SPACER LINKERS” (priority 2007, published 2014).

Molecules are shown by their SMILES.

For data set [1] the following is noted: rat, in vivo.
Excerpt: Comparison of Bile Clearance (% ID) of unconjugated drug, drug conjugate lacking a hydrophilic spacer linker, and conjugates described herein.
In a further data set the test system is RAW264.7 cells. Type of data set: cell-based. The conditions noted are these: for RAW264.7 Cells Competable with xs folate: excess folic acid. As for the experimental part: In Vitro Concentration-Dependent Cytotoxic Activity. Cells were heavily seeded in 24-well Falcon plates and allowed to form nearly confluent monolayers overnight. Thirty minutes prior to the addition of test article, spent medium was aspirated from all wells and replaced with fresh folate-free RPMI (FFRPMI). […] Treated cells were pulsed for 2 h at 37° C., rinsed 4 times with 0.5 mL of media, and then chased in 1 mL of fresh media up to 70 h. Spent media was aspirated from all wells and replaced with fresh media containing 5 μCi/mL ^3H-thymidine. Following a further 2 h 37° C. incubation, cells were washed 3 times with 0.5 mL of PBS and then treated with 0.5 mL of ice-cold 5% trichloroacetic acid per well. After 15 min, the trichloroacetic acid was aspirated and the cell material solubilized by the addition of 0.5 mL of 0.25 N sodium hydroxide for 15 min. Four hundred and fifty μL of each solubilized sample were transferred to scintillation vials containing 3 mL of Ecolume scintillation cocktail and then counted in a liquid scintillation counter. Final tabulated results were expressed as the percentage of ^3H-thymidine incorporation relative to untreated controls.
As shown in the figures herein, dose-dependent cytotoxicity was measurable, and in most cases, the IC50 values (concentration of drug conjugate required to reduce ^3H-thymidine incorporation into newly synthesized DNA by 50%) were in the low nanomolar range. […] The following table illustrated data for selected compounds against KB cells and against RAW264.7 cells

`CC[C@]1(O)C[C@@H]2CN(CCc3c([nH]c4ccccc34)[C@@](C(=O)OC)(c3cc4c(cc3OC)N(C)[C@H]3[C@@](O)(C(=O)NN)[C@H](O)[C@]5(CC)C=CCN6CC[C@]43[C@@H]65)C2)C1` [DAVLBH, deacetylvinblastine monohydrazide, reference compound]: in data set [1], the “Bile clearance (% ID)” value came out at 58.0 % ID.

On to `CNC(=O)[C@H](Cc1cn(CCO[C@@H]2OC(C(=O)O)C(O)[C@H](O)C2O)nn1)NC(=O)CC[C@H](NC(=O)c1ccc(NCc2cnc3nc(N)nc(O)c3n2)cc1)C(=O)O` (stereo partly shown) [EC0423], for which the “Bile clearance (% ID)” value in data set [1] is listed as 3.9 % ID.

`Nc1nc(N)c2nc(CNc3ccc(C(=O)N[C@@H](CCC(=O)OCCSSC[C@H](NC(=O)[C@H](CCC(=O)NC[C@H](O)[C@@H](O)[C@H](O)[C@H](O)CO)NC(=O)[C@H](CCC(=O)O)NC(=O)[C@H](CCC(=O)NC[C@H](O)[C@@H](O)[C@H](O)[C@H](O)CO)NC(=O)[C@H](CCC(=O)O)NC(=O)[C@H](CCC(=O)NC[C@H](O)[C@@H](O)[C@H](O)[C@H](O)CO)NC(=O)CC[C@H](NC(=O)c4ccc(NCc5cnc6nc(N)[nH]c(=O)c6n5)cc4)C(=O)O)C(=O)O)C(=O)O)cc3)cnc2n1` [EC0551]: in the data set with RAW264.7 cells, the concentration for half-maximal inhibition (IC50) (in general, the concentration that gives 50% inhibition) is 1 nM and the “RAW264.7 Cells Competable with xs folate” value was “Yes”.

Regarding `CO[C@H]1C[C@@H]2CC[C@@H](C)[C@@](O)(O2)C(=O)C(=O)N2CCCC[C@H]2C(=O)O[C@H]([C@H](C)C[C@@H]2CC[C@@H](O)[C@H](OC)C2)CC(=O)[C@H](C)/C=C(\C)[C@@H](OC(=O)OCCSSC[C@H](NC(=O)[C@H](CCC(=O)NC[C@H](O)[C@@H](O)[C@H](O)[C@H](O)CO)NC(=O)[C@H](CCC(=O)O)NC(=O)[C@H](CCC(=O)NC[C@H](O)[C@@H](O)[C@H](O)[C@H](O)CO)NC(=O)[C@H](CCC(=O)O)NC(=O)[C@H](CCC(=O)NC[C@H](O)[C@@H](O)[C@H](O)[C@H](O)CO)NC(=O)CC[C@H](NC(=O)c2ccc(NCc3cnc4nc(N)[nH]c(=O)c4n3)cc2)C(=O)O)C(=O)O)[C@@H](OC)C(=O)[C@H](C)C[C@H](C)/C=C/C=C/C=C/1C` [EC0552], in the data set on RAW264.7 cells, the “RAW264.7 Cells Competable with xs folate” value was “Yes”.

As to `CO[C@H]1C[C@@H]2CC[C@@H](C)[C@@](O)(O2)C(=O)C(=O)N2CCCC[C@H]2C(=O)O[C@H]([C@H](C)C[C@@H]2CC[C@@H](O)[C@H](OC)C2)CC(=O)[C@H](C)/C=C(\C)[C@@H](OC(=O)OCCSSCCC(=O)NC[C@@H]2NC(=O)[C@@H](NC(=O)[C@H](CCC(=O)O)NC(=O)[C@H](CCC(=O)NC[C@H](O)[C@@H](O)[C@H](O)[C@H](O)CO)NC(=O)[C@H](CCC(=O)O)NC(=O)[C@H](CCC(=O)NC[C@H](O)[C@@H](O)[C@H](O)[C@H](O)CO)NC(=O)CC[C@H](NC(=O)c3ccc(NCc4cnc5nc(N)[nH]c(=O)c5n4)cc3)C(=O)O)CCC(=O)NC[C@H](O)[C@@H](O)[C@H](O)[C@H]3COB(O3)[C@H](CC(C)C)NC(=O)[C@H](Cc3ccccc3)NC(=O)c3cnc(cn3)CSSC[C@@H](C(=O)O)NC2=O)[C@@H](OC)C(=O)[C@H](C)C[C@H](C)/C=C/C=C/C=C/1C` [EC0563], the “RAW264.7 Cells Competable with xs folate” value with RAW264.7 cells is “Yes”.

On to `CO[C@H]1C[C@@H]2CC[C@@H](C)[C@@](O)(O2)C(=O)C(=O)N2CCCC[C@H]2C(=O)O[C@H]([C@H](C)C[C@@H]2CC[C@@H](OCCOC(=O)OCCSSCCC(=O)NC[C@@H]3NC(=O)[C@@H](NC(=O)[C@H](CCC(=O)O)NC(=O)[C@H](CCC(=O)NC[C@H](O)[C@@H](O)[C@H](O)[C@H](O)CO)NC(=O)[C@H](CCC(=O)O)NC(=O)[C@H](CCC(=O)NC[C@H](O)[C@@H](O)[C@H](O)[C@H](O)CO)NC(=O)CC[C@H](NC(=O)c4ccc(NCc5cnc6nc(N)[nH]c(=O)c6n5)cc4)C(=O)O)CCC(=O)NC[C@H](O)[C@@H](O)[C@H](O)[C@H]4COB(O4)[C@H](CC(C)C)NC(=O)[C@H](Cc4ccccc4)NC(=O)c4cnc(cn4)CSSC[C@@H](C(=O)O)NC3=O)[C@H](OC)C2)CC(=O)[C@H](C)/C=C(\C)[C@@H](O)[C@@H](OC)C(=O)[C@H](C)C[C@H](C)/C=C/C=C/C=C/1C` [EC0582], for which, in the data set with RAW264.7 cells, the “RAW264.7 Cells Competable with xs folate” value was “Yes”.
